Data: US6897228B2, “Pyridoxine and pyridoxal analogues: new uses” (Medicure International Inc., priority 2000, dated 2005)

How the values were obtained:
[1] = system: Platelets from HIT patients; experiment: Heparin-induced aggregation and ATP release of platelets from HIT patients; format: cell-based, human
Text: XL was capable of inhibiting the aggregation of platelets drawn from patients known to have heparin induced thrombocytopenia (HIT). Platelets from HIT patients were challenged with 0.5 U/ml concentration of heparin in the presence and absence of drug. […] XL is useful as an antiplatelet treatment for HIT patients who cannot be administered heparin due to the immune reaction with heparin that leads to aggregation rather than thrombolysis.
Platelets were drawn from HIT patients and challenged with heparin to a final concentration of 0.5 U/ml of low molecular weight heparin, in the presence and absence of the drug. […] ATP was detected in a lumi aggregometor (Chronolog Corp.). A luciferin-luciferase mixture was used to detect ATP release. The luciferin-luciferase mixture was previously calibrated to a known amount of ATP. Thus a spike in ATP release indicated platelet aggregation. As shown by the data, HIT patents have a large amplitude release when there is no XL compound present. When XL compound is present it inhibits this characteristic release of ATP.
Low heparin is low molecular weight heparin and high heparin is unfractionated heparin. The presence of low molecular weight heparin will cause platelet aggregation. All samples were treated with a constant final concentration of heparin; 0.5 U/ml—low and 100 U/ml high. HIT causes platelet aggregation in the Low Concentration of Heparin only, as well as a ration of >5.0 when comparing the Low/High concentration of Heparin.

[2] = system: platelets (platelet rich plasma); experiment: Inhibition of platelet aggregation (aggregometer, platelet rich plasma); format: cell-based; details: for Extent of aggregation as a percentage amplitude, 1 μg/mL collagen: agonist 1 μg/mL collagen; for Extent of aggregation as a percentage amplitude, 4 μM ADP: agonist 4 μM ADP; for Extent of aggregation as a percentage amplitude, 5 μg/mL collagen: agonist 5 μg/mL collagen; for Extent of aggregation as a percentage amplitude, 12 μM TRAP: agonist 12 μM TRAP
Method: Platelet rich plasma (PRP) was obtained by drawing whole blood into sodium citrate tubes (3.2%) and centrifuging at 700 rpm for 10 minutes. Platelet poor plasma (PPP) was obtained by centrifuging the remainder of the sample ntil the platelets were removed (3200 rpm for 10 minutes). The PRP was adjusted to a count of 280×10^9/L using a mixture of PRP and PPP. The incubation mixture consisted of 200 μL of platelets and 25 μL of the appropriate compound (18 mM stock for a final concentration of 2 mM and 4.5 mM stock for a final concentration of 500 μM), rendering an approximate final platelet count in the incubation mixture of 250×10^9/L. After incubation (30 minutes at room temperature, the cuvettes were incubated for 3 minutes at 37° C., transferred to the mixing wells and after the baselines transmittances were measured in an aggregometer (Chrono-Log 4), 25 μL of agonist was added to give a final concentration of 4 μM ADP, 1 μg/mL collagen, 5 μg/mL collagen or 12 μM thrombin receptor activating peptide (TRAP). Final transmittances were then measured in the aggregometer (lower percent transmittance represents higher aggregation). […] Table 24-1 gives the results of the extent of aggregation for several compounds as percentage amplitude read directly from the aggregometer.

In the case of Cc1ncc(CNc2ccc(-c3ccc(C(=N)N)cc3)cc2)c(CO)c1O [Compound XL], the “effects of heparin induced thrombocytopenia (HIT)” value ([1]; 500 micromolar) is reported as “completely suppress”, the “aggregation of platelets from HIT patients” value ([1]; 500 micromolar, 0.5 U/ml heparin) is reported as “completely suppress” and the “Amplitude of ATP release spike (low Heparin)” value (“Amplitude of ATP release spike” below) ([1]; Patient 1, 500 μM, 0.5 U/ml low heparin, without drug 363) is reported as 14. The “Ratio of Low/High Heparin” value ([1]; Patient 1, 500 μM, without drug 42.4, HIT ratio >5.0) was 1.9, the “Aggregation (Low Heparin)” value ([1]; Patient 1, 500 μM, without drug Present) was “Absent” and the “Aggregation (Low Heparin)” value ([1]; Patient 1, 2 mM) was “Absent”. The “Amplitude of ATP release spike” value ([1]; Patient 1, 2 mM) was 28, the “Ratio of Low/High Heparin” value ([1]; Patient 1, 2 mM) was 2.7 and the “Ratio of Low/High Heparin” value ([1]; Patient 2, 500 μM, without drug 37.6) was 1.6. For the same compound, the “Amplitude of ATP release spike” value ([1]; Patient 2, 500 μM, without drug 286) was 11, the “Aggregation (Low Heparin)” value ([1]; Patient 2, 500 μM, without drug Present) was “Absent” and the “Aggregation (Low Heparin)” value ([1]; Patient 2, 2 mM) was “Absent”. For the same compound, the “Amplitude of ATP release spike” value ([1]; Patient 2, 2 mM) was 12, the “Ratio of Low/High Heparin” value ([1]; Patient 2, 2 mM) was 1.6 and the “characteristic release of ATP of HIT platelets” value ([1]; heparin challenge, lumi aggregometer) was “inhibits”. For the same compound, the “Extent of aggregation as a percentage amplitude, 1 μg/mL collagen” value ([2]; compound 500 μM) was 4%, the “Extent of aggregation as a percentage amplitude, 4 μM ADP” value ([2]; compound 500 μM) was 9% and the “Extent of aggregation as a percentage amplitude, 5 μg/mL collagen” value ([2]; compound 500 μM) was 52%. The “Extent of aggregation as a percentage amplitude, 12 μM TRAP” value ([2]; compound 500 μM) was 3%, the “Extent of aggregation as a percentage amplitude, 1 μg/mL collagen” value ([2]; compound 2 mM) was 4% and the “Extent of aggregation as a percentage amplitude, 4 μM ADP” value ([2]; compound 2 mM) was 4%. For the same compound, the “Extent of aggregation as a percentage amplitude, 5 μg/mL collagen” value ([2]; compound 2 mM) was 5% and the “Extent of aggregation as a percentage amplitude, 12 μM TRAP” value ([2]; compound 2 mM) was 4%.
